This assay has as its target C-X-C chemokine receptor type 6 (Homo sapiens) (UniProt O00574). Briefly: CXCR6 receptor antagonists, dose response, cell-based, beta-arrestin, DiscoveRx, APJ panel, uHTS hits (AID 624129). Conditions: CXCR6 beta-arrestin (DiscoveRx) antagonist cell assay; for outcome: CXCR6, dose range 1.
Setting [1] is: CXCR6, dose range 1, mean IC50 across replicates.
[2] abbreviates: CXCR6, run 2, dose range 1, at 79 µM (top of the series).

The source made the active and inactive calls. The rule behind the calls is not given here.

Here are results for 19 compounds from PubChem BioAssay AID624129 (Sanford-Burnham Center for Chemical Genomics, 2012).

C-X-C chemokine receptor type 6 (Homo sapiens), sequence (O00574 whole entry, looked up): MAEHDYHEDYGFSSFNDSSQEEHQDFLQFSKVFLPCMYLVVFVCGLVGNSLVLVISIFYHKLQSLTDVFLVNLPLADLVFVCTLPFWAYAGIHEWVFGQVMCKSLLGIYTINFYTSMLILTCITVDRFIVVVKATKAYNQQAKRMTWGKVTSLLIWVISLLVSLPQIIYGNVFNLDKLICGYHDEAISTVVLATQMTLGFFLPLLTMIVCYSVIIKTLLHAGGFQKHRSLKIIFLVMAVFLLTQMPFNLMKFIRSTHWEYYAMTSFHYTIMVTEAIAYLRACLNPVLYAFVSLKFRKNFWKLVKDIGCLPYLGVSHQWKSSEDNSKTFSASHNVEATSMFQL

By IC50 is commonly meant the point on the concentration scale where inhibition reaches its midpoint. As a reminder, the inhibition is the change of the read-out against control, counted positive when it falls. As to `CCN(CC(=O)NC(C)(C)C)Cc1nc2c(Br)cc(Br)cc2c(=O)[nH]1`, the outcome was inactive. Further, the IC50 under setting [1] worked out at 13.1 µM. The concentration for half-maximal inhibition (IC50) (CXCR6, run 1, dose range 2) turned out to be 12.4 µM. Besides, the inhibition (CXCR6, run 2, dose range 1, at 39.5 µM (top of the series)) is 74.7%. In addition, where the note is “CXCR6, run 2, dose range 2”, the IC50 amounted to 13.8 µM.
For `CCCNC(=O)c1nnsc1S(=O)(=O)c1ccc(Cl)cc1`, the result was inactive. The IC50 under setting [1] turned out to be 14.1 µM. Besides, where the note is “CXCR6, run 1, dose range 2”, the IC50 turned out to be 13.8 µM. The inhibition under setting [2] came out at 112%. Where the note is “CXCR6, run 2, dose range 2”, this compound came in with an IC50 of 14.3 µM.
For the compound `CCCNC(=O)c1nnsc1S(=O)c1ccc(Cl)cc1` (stereo not given), the outcome was inactive. Under setting [1], this compound showed an IC50 of 11.7 µM. Under “CXCR6, run 1, dose range 2”, this compound had an IC50 of 11.8 µM. Under setting [2], the inhibition is 112%. The compound further yielded an IC50 (CXCR6, run 2, dose range 2) of 11.7 µM.
For `COc1cc(/C=C(\C#N)c2nc3ccccc3o2)ccc1O`, the result was inactive. In addition, the IC50 under setting [1] is 35.5 µM. Under “CXCR6, run 1, dose range 2”, this compound had an IC50 of 28.8 µM. Also, the inhibition under setting [2] was found to be 73.9%. This compound also returned an IC50 (CXCR6, run 2, dose range 2) of 42.1 µM.
In the same order, the values of `O=C1C=CC(=O)N1CCNc1ncc(C(F)(F)F)cc1Cl` are “inactive”, 15.5 µM, 15.7 µM, 110% and 15.2 µM.
The like results for `Cn1cnc([N+](=O)[O-])c1S(=O)(=O)c1ccc(Cl)cc1` were, in that order, “inactive”, 13.9 µM, 14.5 µM, 110% and 13.3 µM.
In the same order, the values of `Cc1c(N=Nc2c(O)[nH]c(=S)[nH]c2=O)c(=O)n(-c2ccccc2)n1C` are “inactive”, 22.5 µM, 16.4 µM, 107% and 28.6 µM.
Regarding `CCn1nccc1C(=O)Nc1nc2ccccc2n1CCN1CCCCC1`, the outcome was inactive. In addition, the IC50 under setting [1] worked out at 20.5 µM. This compound returned an IC50 (CXCR6, run 1, dose range 2) of 17.2 µM. The inhibition under setting [2] turned out to be 84.7%. Where the note is “CXCR6, run 2, dose range 2”, this compound returned a half-maximal inhibitory concentration (IC50) of 23.7 µM.
In the same order, the values of `Cc1cccc(Cc2cnc(N3C(=N)SC(C)C3=O)s2)c1` (stereo not given) are “active”, 7.79 µM, 7.79 µM, 41.4% and more than 79 µM.
The like results for `CNC(=O)c1nnsc1S(=O)c1ccc(Cl)cc1` (stereo not given) were, in that order, “inactive”, 13 µM, 13.2 µM, 112% and 12.7 µM.
For `Cc1ccccc1NC(=S)NNc1ncc(C(F)(F)F)cc1Cl`, the result was inactive. The IC50 under setting [1] was 15 µM. The compound also had an IC50 (CXCR6, run 1, dose range 2) of 16.4 µM. The inhibition under setting [2] was 83.5%. Under “CXCR6, run 2, dose range 2”, this compound yielded an IC50 of 13.7 µM.
The like results for `O=C(C#Cc1cccc([N+](=O)[O-])c1)c1ccccc1` were, in that order, “inactive”, 13.5 µM, 12.6 µM, 108% and 14.4 µM.
In the case of `Cc1ccc(NC(=O)c2nc(S(=O)(=O)Cc3ccccc3)ncc2Cl)cc1`, the result was inactive. The same compound showed an IC50 under setting [1] of 15.3 µM. This compound also gave an IC50 (CXCR6, run 1, dose range 2) of 15.2 µM. Moreover, under setting [2], the inhibition was determined as 111%. Besides, the IC50 (CXCR6, run 2, dose range 2) is 15.5 µM.
The like results for `O=[N+]([O-])c1ccc(Sc2nc3ccccc3o2)c([N+](=O)[O-])c1` were, in that order, “inactive”, 45.1 µM, 70.5 µM, 82.2% and 19.7 µM.
For `O=C(COc1ccc(Br)cc1Cl)NC(=S)N1CCc2ccccc21`, the result was inactive. Also, the IC50 under setting [1] was found to be 17.3 µM. The half-inhibitory concentration (IC50) (CXCR6, run 1, dose range 2) stood at 14.8 µM. In addition, the inhibition under setting [2] was 94.9%. For the same compound, the IC50 (CXCR6, run 2, dose range 2) was 19.7 µM.
On to `C=CCOc1ccc(C=NNc2ccc(S(=O)(=O)Nc3ccccc3C(=O)O)cc2[N+](=O)[O-])cc1OC`, for which the outcome was inactive. For the same compound, the concentration for half-maximal inhibition (IC50) under setting [1] amounted to 28.8 µM. Besides, the IC50 (CXCR6, run 1, dose range 2) was 29.4 µM. For the same compound, under setting [2], the inhibition was 98.5%. In addition, the IC50 (CXCR6, run 2, dose range 2) was found to be 28.2 µM.
The like results for `CCCC(=O)OCCNc1cc(SCCC(=O)OC)c2nonc2c1[N+](=O)[O-]` were, in that order, “inactive”, 22 µM, 23.6 µM, 108% and 20.3 µM.
The like results for `CCc1nnc(NS(=O)(=O)c2ccc(Nc3ccc([N+](=O)[O-])c4nonc34)cc2)s1` were, in that order, “inactive”, 34.1 µM, 29.8 µM, 92.2% and 38.4 µM.
The like results for `FC(F)(F)c1cnc(NNC(=S)Nc2cccnc2)c(Cl)c1` were, in that order, “inactive”, 21.1 µM, 11.8 µM, 107% and 30.4 µM.
